Values after ≈ are worked out from the molar mass of the structure shown.
What was measured:
Toll-like receptor 7 = target: T1, Toll-like receptor 7 (Homo sapiens, UniProt Q9NYK1); assay: Antagonist activity at TLR7 in human PBMC cells assessed as reduction in IFN alpha measured after 20 hrs by AlphaLISA assay; format: cell-based
T1 sequence (Q9NYK1 whole entry): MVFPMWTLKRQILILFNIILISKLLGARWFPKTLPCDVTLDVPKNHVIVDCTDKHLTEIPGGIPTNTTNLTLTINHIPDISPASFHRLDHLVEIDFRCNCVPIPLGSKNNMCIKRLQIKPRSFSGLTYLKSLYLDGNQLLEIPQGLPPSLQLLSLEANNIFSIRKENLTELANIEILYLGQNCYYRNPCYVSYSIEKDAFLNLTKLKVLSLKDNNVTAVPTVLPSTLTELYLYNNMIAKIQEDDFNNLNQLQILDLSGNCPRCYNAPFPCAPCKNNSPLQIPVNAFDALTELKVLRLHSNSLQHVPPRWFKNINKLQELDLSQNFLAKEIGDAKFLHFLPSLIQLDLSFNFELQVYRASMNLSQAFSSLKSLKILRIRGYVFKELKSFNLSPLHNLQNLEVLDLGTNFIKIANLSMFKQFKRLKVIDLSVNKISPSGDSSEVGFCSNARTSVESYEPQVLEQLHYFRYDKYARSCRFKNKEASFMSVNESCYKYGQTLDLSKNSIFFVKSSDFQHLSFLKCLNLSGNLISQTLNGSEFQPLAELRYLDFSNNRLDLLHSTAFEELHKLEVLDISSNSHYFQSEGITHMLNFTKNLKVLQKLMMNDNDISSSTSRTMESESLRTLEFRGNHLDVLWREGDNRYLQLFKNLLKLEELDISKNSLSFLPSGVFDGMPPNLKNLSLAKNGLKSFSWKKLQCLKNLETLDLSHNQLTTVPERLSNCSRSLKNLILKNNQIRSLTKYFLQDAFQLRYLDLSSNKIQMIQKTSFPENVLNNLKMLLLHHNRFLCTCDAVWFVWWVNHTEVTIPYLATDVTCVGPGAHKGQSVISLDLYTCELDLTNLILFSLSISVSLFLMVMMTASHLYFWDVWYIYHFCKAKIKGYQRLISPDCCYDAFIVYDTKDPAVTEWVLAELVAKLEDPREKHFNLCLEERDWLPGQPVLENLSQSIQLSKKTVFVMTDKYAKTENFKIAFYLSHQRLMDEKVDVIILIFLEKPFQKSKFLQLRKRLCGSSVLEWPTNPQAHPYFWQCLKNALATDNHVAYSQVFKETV

Toll-like receptor 8 = target: T2, Toll-like receptor 8 (Homo sapiens, UniProt Q9NR97); assay: Antagonist activity at TLR8 in human PBMC cells […] assessed as reduction in IL-6 level measured after 20 hrs by AlphaLISA assay; format: cell-based
T2 sequence (Q9NR97 whole entry): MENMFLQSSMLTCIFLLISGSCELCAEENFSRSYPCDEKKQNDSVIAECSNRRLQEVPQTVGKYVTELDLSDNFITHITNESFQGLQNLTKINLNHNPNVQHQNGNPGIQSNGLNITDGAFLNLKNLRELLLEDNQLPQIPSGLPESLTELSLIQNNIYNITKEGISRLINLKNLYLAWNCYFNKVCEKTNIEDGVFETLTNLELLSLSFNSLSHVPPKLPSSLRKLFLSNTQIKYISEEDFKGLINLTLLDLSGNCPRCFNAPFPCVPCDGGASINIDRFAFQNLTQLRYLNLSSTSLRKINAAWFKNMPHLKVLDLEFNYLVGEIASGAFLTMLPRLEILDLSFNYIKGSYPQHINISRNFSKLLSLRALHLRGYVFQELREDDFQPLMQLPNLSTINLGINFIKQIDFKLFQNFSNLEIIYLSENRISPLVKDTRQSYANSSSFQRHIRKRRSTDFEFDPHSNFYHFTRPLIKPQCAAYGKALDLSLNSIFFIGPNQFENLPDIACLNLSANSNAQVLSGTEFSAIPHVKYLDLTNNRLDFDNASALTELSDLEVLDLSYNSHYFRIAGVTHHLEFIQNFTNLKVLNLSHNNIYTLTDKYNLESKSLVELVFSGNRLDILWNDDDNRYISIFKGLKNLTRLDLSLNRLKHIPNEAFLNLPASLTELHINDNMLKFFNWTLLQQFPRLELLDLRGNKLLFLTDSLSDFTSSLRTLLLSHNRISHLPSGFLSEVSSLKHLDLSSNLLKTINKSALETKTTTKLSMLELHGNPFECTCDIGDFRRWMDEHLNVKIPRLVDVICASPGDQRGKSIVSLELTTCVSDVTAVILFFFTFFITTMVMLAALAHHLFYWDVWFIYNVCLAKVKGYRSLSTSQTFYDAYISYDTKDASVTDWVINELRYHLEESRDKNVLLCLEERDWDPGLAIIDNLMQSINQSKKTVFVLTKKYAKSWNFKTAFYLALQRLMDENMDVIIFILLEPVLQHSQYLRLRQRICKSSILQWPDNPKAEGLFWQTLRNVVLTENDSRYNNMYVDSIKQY

Toll-like receptor 9 = target: T3, Toll-like receptor 9 (Homo sapiens, UniProt Q9NR96); assay: Antagonist activity at TLR9 in human PBMC cells assessed as reduction in IFN alpha measured after 20 hrs by AlphaLISA assay; format: cell-based
T3 sequence (Q9NR96 whole entry): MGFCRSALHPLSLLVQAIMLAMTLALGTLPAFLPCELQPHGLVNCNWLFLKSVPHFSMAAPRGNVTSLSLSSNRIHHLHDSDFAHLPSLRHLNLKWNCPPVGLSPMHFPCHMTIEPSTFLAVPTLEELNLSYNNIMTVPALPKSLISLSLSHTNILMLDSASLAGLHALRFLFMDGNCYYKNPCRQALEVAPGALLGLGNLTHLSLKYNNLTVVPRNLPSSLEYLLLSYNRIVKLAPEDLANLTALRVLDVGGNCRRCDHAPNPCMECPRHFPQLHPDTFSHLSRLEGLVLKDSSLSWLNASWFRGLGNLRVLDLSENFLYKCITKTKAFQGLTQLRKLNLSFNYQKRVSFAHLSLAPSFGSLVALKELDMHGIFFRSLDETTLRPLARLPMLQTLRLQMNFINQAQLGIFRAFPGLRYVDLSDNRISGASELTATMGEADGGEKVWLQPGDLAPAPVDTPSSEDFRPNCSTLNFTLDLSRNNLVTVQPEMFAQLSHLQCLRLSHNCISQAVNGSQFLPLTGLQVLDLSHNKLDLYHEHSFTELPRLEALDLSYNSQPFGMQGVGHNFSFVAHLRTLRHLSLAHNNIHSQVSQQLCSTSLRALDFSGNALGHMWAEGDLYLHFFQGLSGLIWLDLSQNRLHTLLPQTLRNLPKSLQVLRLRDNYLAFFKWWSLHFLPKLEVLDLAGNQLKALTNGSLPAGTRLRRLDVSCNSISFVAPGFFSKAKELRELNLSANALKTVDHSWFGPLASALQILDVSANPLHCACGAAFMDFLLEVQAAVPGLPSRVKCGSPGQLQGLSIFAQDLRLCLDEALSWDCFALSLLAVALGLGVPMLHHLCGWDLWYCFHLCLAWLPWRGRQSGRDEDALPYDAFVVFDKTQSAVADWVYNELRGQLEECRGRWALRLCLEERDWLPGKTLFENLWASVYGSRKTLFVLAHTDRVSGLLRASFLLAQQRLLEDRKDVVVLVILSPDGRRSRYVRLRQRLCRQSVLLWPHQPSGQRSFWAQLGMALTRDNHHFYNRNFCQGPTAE

[1] = Permeability of the compound by PAMPA; format: ADME
[2] = Solubility of the compound; format: physicochemical
[3] = target: Voltage-gated inwardly rectifying potassium channel KCNH2 (Homo sapiens, UniProt Q12809); assay: Displacement of [3H]-dofetilite from human ERG (unknown origin); format: toxicity
Cytochrome P450 3A4 [4] = target: T4, Cytochrome P450 3A4 (Homo sapiens, UniProt P08684); assay: Inhibition of CYP3A4 (unknown origin); format: ADME
Cytochrome P450 3A4 [5] = target: T4, Cytochrome P450 3A4; assay: Time dependent inhibition of CYP3A4 (unknown origin) assessed as Kobs; format: ADME
[6] = Metabolic stability in human liver microsomes assessed as intrinsic clearance; format: ADME, Microsome; settings: read-out: CLH
[7] = Metabolic stability in mouse liver microsomes assessed as intrinsic clearance; format: ADME, Microsome; settings: read-out: CLH
[8] = Metabolic stability in rat liver microsomes assessed as intrinsic clearance; format: ADME, Microsome; settings: read-out: CLH
[9] = Volume of distribution at steady state in mouse at 1 mg/ml, po or iv; format: ADME, organism-based; settings: in vivo
[10] = AUC in mouse at 1 mg/ml, iv; format: ADME; parameters: dose 1 mg/ml, route iv; settings: in vivo
[11] = MRT in mouse at 1 mg/ml, po or iv; format: ADME, organism-based; settings: in vivo
[12] = Cmax in mouse at 1 mg/ml, po; format: ADME; parameters: dose 1 mg/ml, route po; settings: in vivo
[13] = AUC in mouse at 1 mg/ml, po; format: ADME; parameters: dose 1 mg/ml, route po; settings: in vivo
[14] = Oral bioavailability in mouse at 1 mg/ml; format: ADME, organism-based; settings: in vivo
[15] = Volume of distribution at steady state in rat at 1 mg/ml, po or iv; format: ADME, organism-based; settings: in vivo
[16] = AUC in rat at 1 mg/ml, iv; format: ADME; parameters: dose 1 mg/ml, route iv; settings: in vivo
[17] = MRT in rat at 1 mg/ml, po or iv; format: ADME, organism-based; settings: in vivo
[18] = Cmax in rat at 1 mg/ml, po; format: ADME; parameters: dose 1 mg/ml, route po; settings: in vivo
[19] = AUC in rat at 1 mg/ml, po; format: ADME; parameters: dose 1 mg/ml, route po; settings: in vivo
[20] = Oral bioavailability in rat at 1 mg/ml; format: ADME, organism-based; settings: in vivo

T4 sequence (P08684 whole entry): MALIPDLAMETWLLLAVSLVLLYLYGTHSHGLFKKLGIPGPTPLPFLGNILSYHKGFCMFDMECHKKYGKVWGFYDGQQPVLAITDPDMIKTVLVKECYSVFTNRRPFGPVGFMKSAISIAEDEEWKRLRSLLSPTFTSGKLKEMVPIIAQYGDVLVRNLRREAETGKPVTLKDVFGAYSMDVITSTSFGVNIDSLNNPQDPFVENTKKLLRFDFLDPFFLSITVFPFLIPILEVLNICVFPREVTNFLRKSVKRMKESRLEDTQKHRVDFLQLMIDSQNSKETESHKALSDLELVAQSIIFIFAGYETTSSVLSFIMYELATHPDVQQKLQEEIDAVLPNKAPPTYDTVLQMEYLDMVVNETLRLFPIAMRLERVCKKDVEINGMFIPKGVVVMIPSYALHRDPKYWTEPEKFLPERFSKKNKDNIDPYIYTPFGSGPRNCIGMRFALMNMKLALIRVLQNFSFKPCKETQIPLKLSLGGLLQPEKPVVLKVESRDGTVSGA
Chain of Voltage-gated inwardly rectifying potassium channel KCNH2 (Q12809 whole entry): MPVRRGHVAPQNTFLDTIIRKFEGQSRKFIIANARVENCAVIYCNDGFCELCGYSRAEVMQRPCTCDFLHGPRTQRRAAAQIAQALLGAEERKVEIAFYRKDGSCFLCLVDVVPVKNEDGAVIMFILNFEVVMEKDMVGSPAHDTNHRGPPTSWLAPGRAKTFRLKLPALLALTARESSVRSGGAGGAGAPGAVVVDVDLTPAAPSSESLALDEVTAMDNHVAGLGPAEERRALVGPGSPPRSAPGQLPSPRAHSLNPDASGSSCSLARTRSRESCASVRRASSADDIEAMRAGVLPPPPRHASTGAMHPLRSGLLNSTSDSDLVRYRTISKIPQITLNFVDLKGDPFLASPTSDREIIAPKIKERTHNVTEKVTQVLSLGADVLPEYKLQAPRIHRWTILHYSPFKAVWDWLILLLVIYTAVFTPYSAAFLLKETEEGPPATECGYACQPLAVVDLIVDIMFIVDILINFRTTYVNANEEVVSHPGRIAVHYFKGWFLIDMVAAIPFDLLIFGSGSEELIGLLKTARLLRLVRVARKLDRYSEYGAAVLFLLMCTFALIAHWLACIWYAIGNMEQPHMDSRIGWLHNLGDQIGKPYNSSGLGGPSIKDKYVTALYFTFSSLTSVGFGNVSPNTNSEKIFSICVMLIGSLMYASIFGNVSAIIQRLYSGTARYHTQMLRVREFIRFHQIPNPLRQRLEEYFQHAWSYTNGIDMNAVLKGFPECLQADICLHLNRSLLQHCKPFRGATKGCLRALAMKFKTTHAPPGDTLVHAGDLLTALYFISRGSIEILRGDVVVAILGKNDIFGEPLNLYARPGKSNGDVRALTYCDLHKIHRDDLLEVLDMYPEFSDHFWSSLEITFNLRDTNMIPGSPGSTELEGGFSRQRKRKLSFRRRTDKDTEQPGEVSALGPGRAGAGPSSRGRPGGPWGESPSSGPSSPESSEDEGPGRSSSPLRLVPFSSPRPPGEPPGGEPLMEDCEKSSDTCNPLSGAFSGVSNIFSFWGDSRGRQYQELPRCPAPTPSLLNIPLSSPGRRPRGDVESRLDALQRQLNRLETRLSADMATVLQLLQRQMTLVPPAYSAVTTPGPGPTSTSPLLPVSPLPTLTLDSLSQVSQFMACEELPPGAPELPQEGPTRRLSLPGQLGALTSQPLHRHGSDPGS

SMILES	IC50 (Toll-like receptor 7) [nM]	IC50 (Toll-like receptor 8) [nM]	IC50 (Toll-like receptor 9) [nM]	log(permeability) [1]	solubility [2] [µM]	IC50 [3] [nM]	IC50 (Cytochrome P450 3A4 [4]) [nM]	Kobs (Cytochrome P450 3A4 [5]) [min⁻¹]	microsomal CLint [6] [µL/min/mg]	microsomal CLint [7] [µL/min/mg]	microsomal CLint [8] [µL/min/mg]	further results
Cc1cc(N2CCc3c(c(C)nn3CC34CCC(N5C[C@@H](C)O[C@@H](C)C5)(CC3)CC4)C2)c2cnn(C)c2n1	10	20	1500	-3.9	> 175	> 30000	> 50000	0.031	130	440	55	
Cc1cc(N2CCc3c(c(C)nn3CC34CCC(N(C)C)(CC3)CC4)C2)c2cnn(C)c2n1	9	160	710	-4.6	> 175	> 30000	> 50000	0.032	34	33	36	
Cc1cc(N2CCc3c(c(C)nn3CC34CCC(NC5COC5)(CC3)CC4)C2)c2cnn(C)c2n1	30	180	970	-4.5	> 175	> 30000	33000	0.009	57	60	67	
COCCNC12CCC(Cn3nc(C)c4c3CCN(c3cc(C)nc5c3cnn5C)C4)(CC1)CC2	10	50	350	-4.8	> 175	22000			27	< 15	< 15	
Cc1cc(N2CCc3c(c(C)nn3CC34CCC(NS(C)(=O)=O)(CC3)CC4)C2)c2cnn(C)c2n1	8	> 10000	> 10000	-4.8	120 (≈ 59.7 µg/mL)	> 30000	> 50000	0.021	107		78	
CN[C@@H](C)C(=O)NC12CCC(Cn3nc(C)c4c3CCN(c3cc(C)nc5c3cnn5C)C4)(CC1)CC2		190	700	-5.3		> 30000	> 50000	0.022	< 15	42	34	Vdss [9]: 3.5 L/kg; AUC [10]: 1.79 µM·h; MRT [11]: 1.6 h; Cmax [12]: 237 nM; AUC [13]: 2.34 µM·h; bioavailability [14]: 26%; Vdss [15]: 2 L/kg; AUC [16]: 1.78 µM·h; MRT [17]: 1.6 h; Cmax [18]: 31 nM; AUC [19]: 0.483 µM·h; bioavailability [20]: 9%
CNC12CCC(Cn3nc(C)c4c3CCN(c3cc(C)nc5c3cnn5C)C4)(CC1)CC2	7	330	440	-5.3	> 175	> 30000	> 50000	0.008	< 15	28	< 15	
Cc1cc(N2CCc3c(c(C)nn3CC34CCC(N5CCCC5)(CC3)CC4)C2)c2cnn(C)c2n1		85	350	-4.7	> 175	11000	18000	0.022	62	24	55	
Cc1cc(N2CCc3c(c(C)nn3CC34CCC(N5CCOCC5)(CC3)CC4)C2)c2cnn(C)c2n1		30	2100	-4.1	> 175	> 30000	> 50000	0.038	130	246	175	

Source: ChEMBL document CHEMBL5360657, “Discovery of the TLR7/8 Antagonist MHV370 for Treatment of Systemic Autoimmune Diseases” (ACS Med Chem Lett, 2023)
